Measurements published in ChEMBL document CHEMBL1201862, “PubChem BioAssay data set” (2004).
The source made the active and inactive calls.

What was measured:
cells [1] = format: functional, cell-based
cells [2] = format: functional, cell-based; remark: listed apart in the source
Caspase-3 [3] = target: T1, Caspase-3 (Homo sapiens, UniProt P42574); format: functional;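 note: Dose-response selectivity test against caspase-3 for candidate inhibitors of sentrin-specific proteases (SENPs)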
T1 sequence (P42574 whole entry): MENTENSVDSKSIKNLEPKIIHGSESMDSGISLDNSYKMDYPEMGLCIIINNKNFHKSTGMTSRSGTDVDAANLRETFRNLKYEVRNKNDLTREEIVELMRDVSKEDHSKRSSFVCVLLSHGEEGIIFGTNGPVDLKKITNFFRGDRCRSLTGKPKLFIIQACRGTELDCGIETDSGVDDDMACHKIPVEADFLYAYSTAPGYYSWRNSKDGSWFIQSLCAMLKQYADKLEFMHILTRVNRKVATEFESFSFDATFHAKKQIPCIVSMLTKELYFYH

[4] = target: T2, Sentrin-specific protease 7 (Homo sapiens, UniProt Q9BQF6); format: functional;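 note: Luminescence-based dose-response confirmation of ultra-high-throughput screening hits, measuring inhibition of SENP7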
T2 sequence (Q9BQF6 whole entry): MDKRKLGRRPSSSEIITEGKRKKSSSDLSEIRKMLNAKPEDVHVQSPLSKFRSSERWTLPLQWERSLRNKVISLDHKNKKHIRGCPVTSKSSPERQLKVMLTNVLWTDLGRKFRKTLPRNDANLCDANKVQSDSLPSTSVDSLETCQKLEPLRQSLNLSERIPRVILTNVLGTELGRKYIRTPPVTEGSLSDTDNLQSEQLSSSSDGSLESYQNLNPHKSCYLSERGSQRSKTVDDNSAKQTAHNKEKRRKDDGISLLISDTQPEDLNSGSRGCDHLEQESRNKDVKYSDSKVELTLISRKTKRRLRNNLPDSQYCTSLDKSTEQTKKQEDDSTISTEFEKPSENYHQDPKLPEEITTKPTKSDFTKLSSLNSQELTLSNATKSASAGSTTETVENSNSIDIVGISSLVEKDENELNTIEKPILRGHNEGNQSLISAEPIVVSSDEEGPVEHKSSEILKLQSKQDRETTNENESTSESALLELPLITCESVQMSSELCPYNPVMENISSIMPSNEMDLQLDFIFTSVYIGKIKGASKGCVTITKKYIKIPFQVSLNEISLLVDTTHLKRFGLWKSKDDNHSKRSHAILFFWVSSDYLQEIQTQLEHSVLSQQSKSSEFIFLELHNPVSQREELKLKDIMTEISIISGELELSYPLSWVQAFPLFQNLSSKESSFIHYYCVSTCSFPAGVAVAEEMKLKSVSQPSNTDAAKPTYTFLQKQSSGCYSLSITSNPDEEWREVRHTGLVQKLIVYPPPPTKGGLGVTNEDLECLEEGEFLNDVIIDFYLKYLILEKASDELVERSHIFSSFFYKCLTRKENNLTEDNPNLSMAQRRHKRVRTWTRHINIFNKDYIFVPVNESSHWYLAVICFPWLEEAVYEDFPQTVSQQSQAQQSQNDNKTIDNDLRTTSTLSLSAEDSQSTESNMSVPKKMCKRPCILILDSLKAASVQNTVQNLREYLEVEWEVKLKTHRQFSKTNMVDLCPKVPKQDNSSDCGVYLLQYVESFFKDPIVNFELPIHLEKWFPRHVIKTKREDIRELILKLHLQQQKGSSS

[5] = target: T3, Sentrin-specific protease 6 (Homo sapiens, UniProt Q9GZR1); format: functional;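 note: Luminescence-based dose-response confirmatory assay of SENP6 inhibition, following up an ultra-high-throughput screen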
T3 sequence (Q9GZR1 whole entry): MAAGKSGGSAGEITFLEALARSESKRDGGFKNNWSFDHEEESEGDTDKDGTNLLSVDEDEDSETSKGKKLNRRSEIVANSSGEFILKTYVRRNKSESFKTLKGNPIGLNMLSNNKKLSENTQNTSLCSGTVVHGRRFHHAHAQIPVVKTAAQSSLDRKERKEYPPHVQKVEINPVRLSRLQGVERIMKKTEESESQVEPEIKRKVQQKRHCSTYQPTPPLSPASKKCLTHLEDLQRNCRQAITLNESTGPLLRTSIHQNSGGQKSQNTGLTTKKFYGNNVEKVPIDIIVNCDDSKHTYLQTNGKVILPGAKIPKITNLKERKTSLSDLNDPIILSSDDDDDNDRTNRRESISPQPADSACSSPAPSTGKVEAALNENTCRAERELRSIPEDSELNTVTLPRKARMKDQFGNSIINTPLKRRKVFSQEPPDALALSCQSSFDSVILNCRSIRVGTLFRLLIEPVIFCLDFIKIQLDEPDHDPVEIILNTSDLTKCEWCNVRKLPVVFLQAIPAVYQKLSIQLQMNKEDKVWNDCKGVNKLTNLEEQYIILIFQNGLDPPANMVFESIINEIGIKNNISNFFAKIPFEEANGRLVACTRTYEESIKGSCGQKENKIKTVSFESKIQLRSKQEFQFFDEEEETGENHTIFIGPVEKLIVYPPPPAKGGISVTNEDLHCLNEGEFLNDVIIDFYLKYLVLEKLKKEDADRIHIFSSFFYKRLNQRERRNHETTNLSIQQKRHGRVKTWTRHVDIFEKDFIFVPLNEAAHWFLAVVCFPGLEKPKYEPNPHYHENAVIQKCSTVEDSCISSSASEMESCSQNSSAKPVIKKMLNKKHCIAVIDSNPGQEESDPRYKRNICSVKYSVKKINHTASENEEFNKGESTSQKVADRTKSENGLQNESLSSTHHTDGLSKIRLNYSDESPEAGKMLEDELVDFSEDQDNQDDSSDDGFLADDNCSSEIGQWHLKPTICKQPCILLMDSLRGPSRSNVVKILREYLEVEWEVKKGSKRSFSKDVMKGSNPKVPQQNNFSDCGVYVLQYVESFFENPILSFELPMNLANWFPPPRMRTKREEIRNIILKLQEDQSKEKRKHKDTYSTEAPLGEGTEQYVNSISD

[6] = target: T4, Sentrin-specific protease 8 (Homo sapiens, UniProt Q96LD8); format: functional;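 note: luminescence read-out of SENP8 inhibition, dose-response confirmation following an ultra-high-throughput screen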
T4 sequence (Q96LD8 whole entry): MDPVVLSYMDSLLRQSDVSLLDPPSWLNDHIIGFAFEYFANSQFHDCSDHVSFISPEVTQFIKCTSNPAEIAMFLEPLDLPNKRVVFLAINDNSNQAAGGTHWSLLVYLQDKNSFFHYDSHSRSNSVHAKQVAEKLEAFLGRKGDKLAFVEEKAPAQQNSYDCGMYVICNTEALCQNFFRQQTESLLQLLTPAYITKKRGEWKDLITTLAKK

[7] = target: Heat shock protein HSP 90-alpha (Homo sapiens, UniProt P07900); format: functional, organism-based
Caspase-3 [8] = target: T1, Caspase-3; test: caspase-3 inhibitors as off-family protease, SAR follow-up, selectivity assay for SENP protease inhibitor project, biochemical, luminescence, set 2 (AID 588599); format: functional
[9] = target: T4, Sentrin-specific protease 8; test: SENP8 protease inhibitors, SAR follow-up, biochemical, luminescence, set 2 (AID 588601); format: functional
[10] = target: T2, Sentrin-specific protease 7; test: SENP7 protease inhibitors, SAR follow-up, biochemical, luminescence, set 2 (AID 588600); format: functional
[11] = target: T3, Sentrin-specific protease 6; test: SENP6 protease inhibitors, SAR follow-up, biochemical, luminescence, set 2 (AID 588598); format: functional
[12] = inhibitors of firefly luciferase expression or activity, dose response, H4 neuroglioma cells, luminescence (AID 1990); format: functional, cell-based
BJ [13] = test: cytotoxicity toward BJ-TERT fibroblasts, dose response, cell-based, RAS-independent, luminescence (AID 1933); format: functional; settings: Homo sapiens
[14] = Luminescence Cell-Based Dose Response HTS to Identify Inhibitors of 5'UTR Stem-Loop Driven Prion Protein mRNA Translation in H4 Neuroglioblastoma Cells. [Related pubchem assays: 1827 (Project Summary), 1813 (Primary HTS)]; format: functional
[15] = inhibitors of SNCA 5'UTR-driven reporter translation, confirmation, H4 neuroglioma cells, luminescence (AID 1988); format: functional, cell-based
BJ [16] = test: cells; format: functional, cell-based; settings: Homo sapiens
[17] = target: Aryl hydrocarbon receptor (Homo sapiens, UniProt P35869); test: Luminescence-based cell-based high throughput dose response assay for activators of the Aryl Hydrocarbon Receptor (AHR). [Related pubchem assays: 2796 (Primary screen (AHR activators in singlicate)), 2845 (Confirmation screen (AHR activators in triplicate)), 434939 (Counterscreen (PXR activators in triplicate)), 2804 (Summary (AHR activators))]; format: ADME
BJ [18] = test: cytotoxicity toward BJ-TERT-LT-ST fibroblasts, dose response, cell-based, RAS-independent, luminescence (AID 1935); format: functional; settings: Homo sapiens;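 note: BJ fibroblasts immortalized with TERT plus LT and ST oncogenes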
[19] = cytotoxicity toward DRD oncogenic fibroblasts, dose response, cell-based, non-viral oncogenic, luminescence (AID 1934); format: functional; settings: Homo sapiens
[20] = THP-1 cell cytotoxicity, dose response, cytotoxicity control for non-replicating M. tuberculosis project (AID 489025); format: functional
[21] = HepG2 cell cytotoxicity, dose response, cytotoxicity control for non-replicating M. tuberculosis project (AID 489018); format: functional; settings: Mycobacterium tuberculosis
Bcl-2-related protein A1 = target: T5, Bcl-2-related protein A1 (Mus musculus, UniProt Q07440); format: functional;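 note: confirmatory dose–response counterscreen on Bfl-1, used to check hits from a UBC13 polyubiquitin inhibitor campaign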
T5 sequence (Q07440 whole entry): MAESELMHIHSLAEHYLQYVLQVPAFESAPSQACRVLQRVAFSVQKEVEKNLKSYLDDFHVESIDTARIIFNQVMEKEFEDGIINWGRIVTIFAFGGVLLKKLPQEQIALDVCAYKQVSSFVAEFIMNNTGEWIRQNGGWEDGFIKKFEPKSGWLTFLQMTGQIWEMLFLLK

[22] = target: T6, Ubiquitin-conjugating enzyme E2 N (Homo sapiens, UniProt P61088); format: functional
T6 sequence (P61088 whole entry): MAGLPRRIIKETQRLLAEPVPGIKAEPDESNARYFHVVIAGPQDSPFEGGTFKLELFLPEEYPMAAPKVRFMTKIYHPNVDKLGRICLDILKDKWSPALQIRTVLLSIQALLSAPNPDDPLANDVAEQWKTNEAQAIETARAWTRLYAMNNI

[23] = Vero E6 cell cytotoxicity, dose response, cytotoxicity control for non-replicating M. tuberculosis project, secondary assay (AID 492998); format: functional, VeroE6; settings: Vero C1008
[24] = target: T6, Ubiquitin-conjugating enzyme E2 N; format: functional; remark: listed apart in the source
[25] = cytotoxicity in HEK-293T cells, dose response, cytotoxicity control for TCR NF-kB inhibitor project, luminescence, T-cell screen hits (AID 489026); format: functional, cell-based;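 note: cells exposed to compound about 14 hours before the viability readout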
cells [26] = format: functional
CHO = test: cytotoxicity in TLR9-MyD88 CHO cells, dose response, cytotoxicity control for TLR9-MyD88 binding inhibitor project, cell-based, luminescence (AID 588339); format: functional, hamster; settings: Cricetulus griseus;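 note: CHO cells stably coexpressing TLR9 and MyD88 fusions from primary screen; compound exposure lasted 48 hours before viability readout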
BJ [27] = test: cytotoxicity toward Ras-transformed BJeLR fibroblasts, dose response, cell-based, alamar blue fluorescence, cherrypicked samples (AID 2631); format: functional; settings: Homo sapiens;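 note: confirmatory dose-response assay in RAS-dependent BJ fibroblasts engineered with TERT, LT and ST, with cytotoxicity read by fluorescence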
Beta Lactamase = Beta Lactamase (Pseudomonas aeruginosa, UniProt Q932Y6); test: beta-lactamase reporter inhibitor potency, dose response, artefact control for TLR9-MyD88 binding inhibitor project, BLA reporter cells, FRET fluorescence (AID 588341); format: cell-based;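 note: cell based assay in CHO-K1 cells stably expressing beta-lactamase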
INS1 = test: beta cell apoptosis inhibitors, cytokine rescue, dose response, luminescence, retest (AID 449756); format: functional, cell-based; settings: Rattus norvegicus;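 note: cell death triggered by IL-1 beta plus TNF-alpha plus IFN-gamma mixture; protective hits raise ATP signal compared with cytokine alone wells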
[28] = target: T7, Mitochondrial peptide methionine sulfoxide reductase (Bos taurus, UniProt P54149); format: functional;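 note: absorbance read-out, biochemical high-throughput dose-response screen for MsrA inhibitors, confirmatory; recombinant bovine MsrA coupled to E. coli TrxB with NADPH and selenocystamine; potency is for inhibitors of MsrA activity on DMSO substrate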
T7 sequence (P54149 whole entry): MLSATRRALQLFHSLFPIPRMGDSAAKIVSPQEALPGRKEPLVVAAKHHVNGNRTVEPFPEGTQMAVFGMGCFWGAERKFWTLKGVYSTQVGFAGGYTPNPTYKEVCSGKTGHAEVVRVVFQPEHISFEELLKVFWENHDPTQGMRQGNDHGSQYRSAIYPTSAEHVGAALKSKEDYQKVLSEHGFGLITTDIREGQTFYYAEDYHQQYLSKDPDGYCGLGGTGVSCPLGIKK

[29] = inhibitors of HIV Env-driven cell fusion, dose response, cherry-pick (AID 652057); format: functional, cell-based
[30] = CEM21 lymphoblast cell cytotoxicity, dose response, cytotoxicity control for viral fusion inhibitor project, CellTiter-Glo luminescence, cherry-picked (AID 652042); format: functional, cell-based;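 note: potency for signal decrease meaning cytotoxicity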
[31] = ZM109 Env clade C HIV-1 fusion inhibitors, dose response, HeLa effector, CEM target cells, luciferase, cherry-pick (AID 652058); format: functional, cell-based
[32] = off-target signal loss in HeLa-CEM21 co-culture – HeLa F-luc CTL cells, cherry-picked, counter-screen for HIV-1 Env fusion inhibitor project, dose response (AID 652040); format: functional, cell-based;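 note: potency for signal decrease marking cytotoxic or nonspecific inhibition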
[33] = inhibitors of clade B AD8 Env fusion, dose response, cell-based, cherry-pick (AID 652062); format: functional;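 note: luciferase signal from cell-cell fusion driven by HIV-1 clade B AD8 Env; potency is for inhibitors of fusion seen as a drop in luminescence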

Sequence of Aryl hydrocarbon receptor (P35869 whole entry): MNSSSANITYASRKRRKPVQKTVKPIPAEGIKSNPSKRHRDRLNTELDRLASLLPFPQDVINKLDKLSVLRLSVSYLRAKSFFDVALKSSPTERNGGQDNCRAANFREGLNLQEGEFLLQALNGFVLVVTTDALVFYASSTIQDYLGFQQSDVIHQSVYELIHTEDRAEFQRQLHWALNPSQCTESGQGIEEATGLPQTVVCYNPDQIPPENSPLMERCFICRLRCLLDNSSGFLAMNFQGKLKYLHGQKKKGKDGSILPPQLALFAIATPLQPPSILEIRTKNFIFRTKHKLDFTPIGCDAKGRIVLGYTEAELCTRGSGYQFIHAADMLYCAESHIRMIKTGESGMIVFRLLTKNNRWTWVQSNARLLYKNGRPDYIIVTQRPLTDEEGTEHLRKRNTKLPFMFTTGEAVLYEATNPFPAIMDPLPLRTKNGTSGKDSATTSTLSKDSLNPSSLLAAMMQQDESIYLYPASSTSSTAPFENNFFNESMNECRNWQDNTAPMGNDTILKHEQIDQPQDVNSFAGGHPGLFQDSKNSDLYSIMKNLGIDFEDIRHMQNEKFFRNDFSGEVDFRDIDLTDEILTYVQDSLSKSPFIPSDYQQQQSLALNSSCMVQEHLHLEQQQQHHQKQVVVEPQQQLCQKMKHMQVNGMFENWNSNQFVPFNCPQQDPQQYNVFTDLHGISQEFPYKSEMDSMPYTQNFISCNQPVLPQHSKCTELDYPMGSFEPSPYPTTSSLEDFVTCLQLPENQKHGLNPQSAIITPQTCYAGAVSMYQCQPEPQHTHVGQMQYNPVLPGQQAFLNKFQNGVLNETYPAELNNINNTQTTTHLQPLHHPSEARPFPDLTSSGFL
Sequence of Beta Lactamase (Q932Y6 whole entry): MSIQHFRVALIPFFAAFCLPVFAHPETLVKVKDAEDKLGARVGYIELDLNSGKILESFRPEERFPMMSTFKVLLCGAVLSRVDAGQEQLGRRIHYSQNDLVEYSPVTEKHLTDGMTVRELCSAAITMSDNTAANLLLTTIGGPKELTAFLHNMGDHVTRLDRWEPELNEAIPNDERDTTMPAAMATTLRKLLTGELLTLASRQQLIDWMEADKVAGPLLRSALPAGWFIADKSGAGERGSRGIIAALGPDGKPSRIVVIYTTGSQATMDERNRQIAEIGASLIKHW

## CCCCNc1nc(N)nc(-c2cc(Cl)ccc2O)n1
Cells [1]
  EC50: > 350 µM (not active)
Cells [2]
  EC50: 3.49 µM (active)
Caspase-3 [3]
  IC50: 44.1 µM (active)
[4]
  IC50: 4.54 µM (active)
[5]
  IC50: > 100 µM (inactive)
[6]
  IC50: > 100 µM (inactive)
[7]
  AC50: 4.87 µM (active)

## COc1ccc2nc(NC(=O)c3ccccc3NS(=O)(=O)c3ccc4c(c3)OCCO4)sc2c1
Caspase-3 [8]
  IC50: > 99 µM (inactive)
[9]
  IC50: > 99 µM (inactive)
[10]
  IC50: > 99 µM (inactive)
[11]
  IC50: > 99 µM (inactive)

## COc1ccc2nc(C)cc(N/N=C/c3ccc(F)cc3)c2c1
[12]
  EC50: 8.44 µM (active)
BJ [13]
  EC50: 1.24 µM (inconclusive)
[14]
  EC50: > 120 µM (not active)
[15]
  EC50: 9.29 µM (active)
BJ [16]
  EC50: 5.09 µM (inconclusive)
[17]
  EC50: > 0.377 µM (active)
BJ [18]
  EC50: 2.66 µM (inconclusive)
[19]
  EC50: 4.92 µM (active)
[20]
  CC50: 1.66 µM (active)
[21]
  CC50: 15.2 µM (active)
Bcl-2-related protein A1
  IC50: 17 µM (active)
[22]
  IC50: 11.8 µM (active)
[23]
  CC50: 0.57 µM (active)
[24]
  IC50: 10.1 µM (active)
[25]
  IC50: > 80 µM (inactive)
Cells [26]
  IC50: 3.12 µM (active)
CHO
  IC50: 6.2 µM (active)
BJ [27]
  EC50: 0.317 µM (active)
Beta Lactamase
  IC50: 2.13 µM (active)
INS1
  AC50: 6.46 µM (active)
[28]
  IC50: 12.8 µM (inactive)
[29]
  AC50: 8.26 µM (active)
[30]
  AC50: 2.65 µM (active)
[31]
  AC50: 8.14 µM (active)
[32]
  AC50: 6.09 µM (active)
[33]
  AC50: 14.7 µM (active)
